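How tested: cells in 96-well plates exposed to compound for 48 hours at five concentrations. GI50 = concentration required for 50% inhibition of growth. The concentration for full growth arrest is given as TGI.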 Some results are limits rather than exact numbers.

Among the test systems are ACHN renal; CAKI-1 renal; HCC-2998 colon; RXF 393 renal; SF-268 CNS; SK-MEL-5 melanoma; SW-620 colon; UACC-62 melanoma; BT-549 breast; DU-145 prostate.
What all share (assay): NCI-60 cell line screen, 48 h

Regarding `CSC(=S)N(C)c1nc(=[N+](C)C)ss1`, the TGI in the assay with ACHN renal, in the assay on CAKI-1 renal, in the assay on HCC-2998 colon, in the assay with RXF 393 renal, in the assay with SF-268 CNS and in the assay on SK-MEL-5 melanoma was above 100 µM throughout. The TGI in the assay on SW-620 colon and with UACC-62 melanoma was above 100 µM in each case.
For `Clc1ccc(C2=Nc3ccccc3SC(c3ccc(Cl)c(Cl)c3)C2)c(Cl)c1` (stereo not drawn), the TGI in the assay on ACHN renal was found to be 27.6 µM; in the assay on CAKI-1 renal, 29.6 µM; in the assay with HCC-2998 colon, 27.8 µM; in the assay on RXF 393 renal, 30.5 µM; with SF-268 CNS it was 19.9 µM; in the assay on SK-MEL-5 melanoma, 32.3 µM. For the same compound, the TGI stood at 18.9 µM in the assay with SW-620 colon and 29.4 µM with UACC-62 melanoma.
As for `O=S(=O)(O)C(F)(F)C(F)(F)C(F)(F)C(F)(F)F`, the TGI with ACHN renal, in the assay on CAKI-1 renal, with HCC-2998 colon, with RXF 393 renal, in the assay on SF-268 CNS and in the assay with SK-MEL-5 melanoma was above 100 µM each time. Further, the TGI in the assay on SW-620 colon and with UACC-62 melanoma was above 100 µM each time.
As for `Cc1cc2c(cn1)C(=O)OCC2`, the TGI with ACHN renal, in the assay on HCC-2998 colon, in the assay on RXF 393 renal, in the assay on SF-268 CNS, in the assay on SW-620 colon and in the assay with UACC-62 melanoma was above 100 µM throughout.
As for `CC1(C)CCSC(/C=C/c2ccccc2)=N1`, the TGI with ACHN renal is 38.8 µM; in the assay with BT-549 breast it was 22 µM; with CAKI-1 renal, 32.3 µM; in the assay on DU-145 prostate it was above 100 µM; in the assay on RXF 393 renal it was 47.7 µM; with SF-268 CNS it was 80.3 µM. Also, the figures for the TGI in the assay with SK-MEL-5 melanoma and in the assay with SW-620 colon were 28.8 µM and 38.6 µM, respectively.
Consider `COc1ccc(C2(CN(C)C)COc3cc(OC)c(OC)cc3C2=O)cc1OC` (stereo not drawn), for which the TGI in the assay with ACHN renal was above 100 µM; with CAKI-1 renal it was above 100 µM; in the assay with HCC-2998 colon it was above 100 µM; in the assay with RXF 393 renal, 79.2 µM; in the assay with SF-268 CNS it was above 100 µM; with SK-MEL-5 melanoma, 60.7 µM. Besides, the values for the TGI with SW-620 colon and with UACC-62 melanoma were 45.8 µM and above 100 µM, respectively.
On to `OCCN(CO)CN(CN(CO)CCO)c1nc(N(CN(CO)CCO)CN(CO)CCO)nc(N(CN(CO)CCO)CN(CO)CCO)n1`, for which the GI50 with ACHN renal was 1.73 ng/mL; with DU-145 prostate, 1.9 ng/mL; in the assay on SF-268 CNS it was 1.35 ng/mL; in the assay on SW-620 colon, 0.55 ng/mL; in the assay on UACC-62 melanoma, 1.26 ng/mL. The TGI in the assay with ACHN renal was 6.27 ng/mL; in the assay on DU-145 prostate, 78.3 ng/mL; in the assay with SF-268 CNS it was 2.93 ng/mL; with SW-620 colon, 6.27 ng/mL; with UACC-62 melanoma, 3.02 ng/mL.
With `Cc1ccccc1C(C#N)/C(=N/NC(=O)c1cc2ccccc2cc1O)C(=O)Nc1cccc(Cl)c1` (stereo not drawn), the TGI was above 100 µM in the assay on ACHN renal; above 100 µM in the assay on CAKI-1 renal; 78.5 µM in the assay with HCC-2998 colon; 90.3 µM with SF-268 CNS; 27.4 µM in the assay on SK-MEL-5 melanoma; above 100 µM in the assay with SW-620 colon. The compound also had a TGI in the assay with UACC-62 melanoma of 18.1 µM.
As to `CCCCCCn1c(-c2ccc(C(=O)O/N=C(\N)c3ccc(OC)cc3)cc2)nc(-c2ccccc2)c1-c1ccccc1`, the GI50 in the assay on ACHN renal is 0.354 µM; in the assay on CAKI-1 renal, 0.997 µM; in the assay with DU-145 prostate, 1.02 µM; in the assay on HCC-2998 colon, 2.09 µM; in the assay with RXF 393 renal, 1.62 µM; with SK-MEL-5 melanoma, 1.92 µM. Besides, the TGI in the assay on ACHN renal came to 1.23 µM; in the assay on CAKI-1 renal, 2.19 µM; in the assay with DU-145 prostate it was 2.22 µM; with HCC-2998 colon it was 4.81 µM; in the assay with RXF 393 renal, 3.17 µM; in the assay with SK-MEL-5 melanoma, 3.71 µM.
As to `CCOC(=O)c1cc2c(cc1Cl)SC(N(c1ccc(F)cc1)S(=O)(=O)c1ccc(OC)cc1)=NS2(=O)=O`, the GI50 in the assay with ACHN renal was 18.5 µM; in the assay on CAKI-1 renal it was 20.2 µM; with DU-145 prostate, 16.1 µM; with HCC-2998 colon, 18.2 µM; in the assay with SF-268 CNS it was 14.5 µM; in the assay on SK-MEL-5 melanoma, 13.6 µM. Besides, the GI50 in the assay on SW-620 colon is 15.9 µM; in the assay with UACC-62 melanoma, 14.6 µM. In addition, the TGI was 42.1 µM in the assay with ACHN renal; 48.7 µM in the assay with CAKI-1 renal; 33.9 µM with DU-145 prostate; 35.2 µM in the assay with HCC-2998 colon; 31.4 µM in the assay with SF-268 CNS; 26.5 µM with SK-MEL-5 melanoma. Further, the TGI in the assay with SW-620 colon came out at 30.6 µM; with UACC-62 melanoma, 30.5 µM.
For `CCCOc1ccc(/C=C/c2cc(OC)c(OC)c(OC)c2)cc1`, the TGI in the assay on ACHN renal was above 100 µM; in the assay with CAKI-1 renal, 37.6 µM; in the assay with HCC-2998 colon it was above 100 µM; with RXF 393 renal it was 0.904 µM; in the assay on SF-268 CNS, above 100 µM; in the assay on SK-MEL-5 melanoma, 0.467 µM. Besides, the TGI in the assay with SW-620 colon and in the assay on UACC-62 melanoma was above 100 µM in each case.
For the compound `O=C(CC(=O)Nc1ccc(Cl)cc1)NNCC(=O)Nc1nc(-c2ccccc2)cs1`, the TGI with HCC-2998 colon, in the assay on RXF 393 renal, in the assay on SF-268 CNS, in the assay with SK-MEL-5 melanoma, in the assay with SW-620 colon and with UACC-62 melanoma was above 100 µM in each case.
In the case of `COc1ncnc2c(NC3OC(CO)C(O)C3O)ncnc12` (stereo not drawn), the TGI with ACHN renal was above 53.7 µM; in the assay with CAKI-1 renal, 6.3 µM; in the assay on DU-145 prostate, 10 µM; in the assay with HCC-2998 colon, above 35 µM; in the assay on RXF 393 renal, 12.7 µM; in the assay with SF-268 CNS, above 100 µM. Besides, the TGI in the assay with SK-MEL-5 melanoma is above 39.8 µM; in the assay with SW-620 colon, 13.2 µM; in the assay with UACC-62 melanoma, 6.66 µM.
Take `CCc1ccccc1NC(=O)CCc1nc(=S)[nH][nH]1`: the TGI in the assay with ACHN renal, with CAKI-1 renal, with HCC-2998 colon, in the assay with RXF 393 renal, in the assay with SF-268 CNS and in the assay with SK-MEL-5 melanoma was above 100 µM each time. In addition, the TGI in the assay with SW-620 colon and in the assay with UACC-62 melanoma was above 100 µM each time.
For the compound `CC(=O)/C=C1/c2ccccc2N(C(C)=O)C1O` (stereo not drawn), the TGI with ACHN renal, with CAKI-1 renal, in the assay on HCC-2998 colon, in the assay on RXF 393 renal, in the assay on SW-620 colon and in the assay with UACC-62 melanoma was above 100 µM each time.

Source of the values: PubChem BioAssay (NCI).
